Laboratory results published in US20210038579A1, “Treatment Of Patients With Classic Fabry Disease” (Amicus Therapeutics, Inc., priority 2018, published 2021).
Where a chain is given by its changes, count along the chain named.

How the values were obtained:
Test in all cases: HEK assay: α-Gal A activity in HEK-293 cell lysate with migalastat
Type in all cases: cell-based
[1] = target: T1, α-Gal A mutant form p.Leu243Phe (c.729 G > C) (Homo sapiens, UniProt P06280, L243F)
T1 construct: expressed in transfected cells; host or cells: HEK-293
T1 sequence (P06280 32-429 L243F): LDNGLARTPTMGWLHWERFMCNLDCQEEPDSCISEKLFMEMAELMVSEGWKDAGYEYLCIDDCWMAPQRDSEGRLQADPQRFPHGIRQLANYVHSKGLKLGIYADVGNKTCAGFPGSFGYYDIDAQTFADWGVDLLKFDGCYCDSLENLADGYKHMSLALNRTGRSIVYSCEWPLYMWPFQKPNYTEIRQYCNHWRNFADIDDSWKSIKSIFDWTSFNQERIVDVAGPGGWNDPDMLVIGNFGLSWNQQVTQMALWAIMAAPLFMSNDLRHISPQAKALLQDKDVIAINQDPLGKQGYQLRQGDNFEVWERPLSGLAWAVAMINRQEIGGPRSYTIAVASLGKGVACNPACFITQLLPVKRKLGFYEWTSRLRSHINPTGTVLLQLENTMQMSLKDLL
Description: (§1) Such mutations are also referred to herein as “HEK assay amenable” mutations.
(§2) In this assay, cDNA constructs are created. The corresponding α-Gal A mutant forms are transiently expressed in HEK-293 cells. Cells are then incubated±migalastat (17 nM to 1 mM) for 4 to 5 days. After, α-Gal A levels are measured in cell lysates using a synthetic fluorogenic substrate (4-MU-α-Gal) or by western blot. This has been done for known disease-causing missense or small in-frame insertion/deletion mutations.

[2] = target: T2, α-Gal A mutant form p.Arg356Trp (c.1066 C > T) (Homo sapiens, UniProt P06280, R356W)
T2 construct: expressed in transfected cells; host or cells: HEK-293
T2 sequence (P06280 32-429 R356W): T1 sequence (P06280 32-429 L243F) with F212L, R325W
Description: as §1, §2

[3] = target: T3, α-Gal A mutant form p.Phe 295Cys (c.884 T > G) (Homo sapiens, UniProt P06280, F295C)
T3 construct: expressed in transfected cells; host or cells: HEK-293
T3 sequence (P06280 32-429 F295C): T1 sequence (P06280 32-429 L243F) with F212L, F264C
Description: as §1, §2

[4] = target: T4, α-Gal A mutant form p.Arg301Gln (c.902 G > A) (Homo sapiens, UniProt P06280, R301Q)
T4 construct: expressed in transfected cells; host or cells: HEK-293
T4 sequence (P06280 32-429 R301Q): T1 sequence (P06280 32-429 L243F) with F212L, R270Q
Description: as §1, §2

[5] = target: T5, α-Gal A mutant form p.Pro205Thr (c.613 C > A) (Homo sapiens, UniProt P06280, P205T)
T5 construct: expressed in transfected cells; host or cells: HEK-293
T5 sequence (P06280 32-429 P205T): T1 sequence (P06280 32-429 L243F) with P174T, F212L
Description: as §1, §2

[6] = +10 μM migalastat, HEK-293 cell lysate, mean ± SEM, n = 20
[7] = HEK293, 10 μM migalastat minus baseline, read-out: Absolute increase at 10 μM (% WT)

SMILES: OC[C@H]1NC[C@H](O)[C@@H](O)[C@H]1O [migalastat]
- α-Gal A activity at 10 μM (fold over baseline) ([1]; 10 μM migalastat): 5.33 fold over baseline
- +Migalastat α-Gal A activity [1, 6]: 14370 ± 618 nmol/mg/h
- +Migalastat α-Gal A activity % WT [1, 6]: 42.3 ± 1.4 % WT
- activation at 10 µM [1, 7]: 34.4%
- α-Gal A activity at 10 μM (fold over baseline) ([2]; 10 μM migalastat): 4.42 fold over baseline
- +Migalastat α-Gal A activity [2, 6]: 15570 ± 830 nmol/mg/h
- +Migalastat α-Gal A activity % WT [2, 6]: 49.1 ± 2.6 % WT
- activation at 10 µM [2, 7]: 38.1%
- α-Gal A activity at 10 μM (fold over baseline) ([3]; 10 μM migalastat): 4.22 fold over baseline
- +Migalastat α-Gal A activity [3, 6]: 5051 ± 190 nmol/mg/h
- +Migalastat α-Gal A activity % WT [3, 6]: 14.5 ± 0.6 % WT
- activation at 10 µM [3, 7]: 11.1%
- α-Gal A activity at 10 μM (fold over baseline) ([4]; 10 μM migalastat): 8.12 fold over baseline
- +Migalastat α-Gal A activity [4, 6]: 15547 ± 353 nmol/mg/h
- +Migalastat α-Gal A activity % WT [4, 6]: 44.5 ± 1.0 % WT
- activation at 10 µM [4, 7]: 39%
- α-Gal A activity at 10 μM (fold over baseline) ([5]; 10 μM migalastat): 3.41 fold over baseline
- +Migalastat α-Gal A activity [5, 6]: 16371 ± 647 nmol/mg/h
- +Migalastat α-Gal A activity % WT [5, 6]: 48.8 ± 2.2 % WT
- activation at 10 µM [5, 7]: 34.4%
